“And” between values parts separate entries of the source, which are not always exact repeats. Equal values may be shown once.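 Dose response: 5 concentrations. Exposure: 48 h. Format: 96-well plates. Endpoint: linear interpolation; highest concentration if not reached. GI50 is the concentration that inhibits growth by half. The concentration for full growth arrest is given as TGI.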
Experiments:
Assay in all cases: NCI anticancer screen, dose series, 48 h
[1] = tested on: BT-549 breast
[2] = tested on: DU-145 prostate
[3] = tested on: HL-60(TB) leukemia
[4] = tested on: HS 578T breast
[5] = tested on: IGROV1 ovarian
[6] = tested on: KM20L2 colon
[7] = tested on: M19-MEL melanoma
[8] = tested on: NCI-H226 lung
[9] = tested on: SF-539 CNS
[10] = tested on: TK-10 renal

Row | SMILES | TGI [1] | TGI [2] | TGI [3] | TGI [4] | TGI [5] | TGI [6] | TGI [7] | TGI [8] | TGI [9] | TGI [10] | GI50 [3] | GI50 [6] | GI50 [7] | GI50 [10] | GI50 [1] | GI50 [2] | GI50 [4] | GI50 [5] | GI50 [8] | GI50 [9]
1 | CCN(CC)CCNC(=O)c1ccc(C)c(OCc2ccccc2)c1[N+](=O)[O-] | > 50.6 µM | > 100 µM | 53.3 µM | > 63.6 µM | > 100 µM | 64.5 µM | 32.7 µM | 90.3 µM | 70.9 µM | 98.1 µM | – | – | – | – | – | – | – | – | – | –
2 | CC(=O)OCCOCNC(=S)N/N=C/c1ccc(Br)s1 | – | – | > 40.2 µM | – | > 100 µM | > 100 µM | > 100 µM | > 100 µM | > 100 µM | > 100 µM | – | – | – | – | – | – | – | – | – | –
3 | CCOc1ccccc1NC(=O)C(C#N)C1=C(Cl)C(=O)c2ccccc2C1=O (stereo not drawn) | – | – | – | – | 5.31 µM | – | 0.351 µM and 0.872 µM | 4.49 µM and 19 µM | 3.64 µM and 3.54 µM | 3.84 µM and 25.8 µM | 2.85 µM | 17.7 µM | 0.303 µM | 12.3 µM | – | – | – | – | – | –
4 | C/C(CCn1[nH]c(=O)ccc1=O)=N\OCCCc1ccccc1 | – | – | > 100 µM | – | > 100 µM | > 100 µM | > 100 µM | > 100 µM | > 100 µM | > 100 µM | – | – | – | – | – | – | – | – | – | –
5 | O=S1(=O)OCCOS(=O)(=O)C1Cl | – | – | > 100 µM | – | > 100 µM | – | > 100 µM | > 100 µM | > 100 µM | > 100 µM | – | – | – | – | – | – | – | – | – | –
6 | N#CC(C(=O)CCC(=O)Nc1cccc(C(F)(F)F)c1)c1ccc(Cl)cc1 (stereo not drawn) | – | – | > 100 µM | – | > 100 µM | > 100 µM | > 100 µM | > 100 µM | > 100 µM | > 100 µM | – | – | – | – | – | – | – | – | – | –
7 | c1ccc(CSc2nc3ccccc3nc2-c2cccs2)cc1 | – | – | > 100 µM | – | > 100 µM | – | > 100 µM | > 100 µM | > 100 µM | > 100 µM | – | – | – | – | – | – | – | – | – | –
8 | CC(C)(C)OC(=O)N1N=NC2C1C1CC(OCc3ccccc3)(OCc3ccccc3)C2O1 (stereo not drawn) | – | – | 31.9 µM | – | > 100 µM | > 100 µM | > 100 µM | 55.4 µM | – | – | – | – | – | – | – | – | – | – | – | –
9 | Oc1ccc(Br)cc1C=Nc1ccc(N=Cc2cc(Br)ccc2O)cc1 | – | – | > 100 µM | – | > 100 µM | > 100 µM | – | > 100 µM | > 100 µM | > 100 µM | – | – | – | – | – | – | – | – | – | –
10 | O=C(O)CN(c1ccccc1)S(=O)(=O)c1ccc([N+](=O)[O-])cc1 | – | – | > 100 µM | – | > 100 µM | > 100 µM | > 100 µM | > 100 µM | > 100 µM | > 100 µM | – | – | – | – | – | – | – | – | – | –
11 | Cc1cc(C(C)(C)C)cc(Cc2cc(C(C)(C)C)cc(Cc3cc(C(C)(C)C)cc(C)c3O)c2O)c1O | – | – | 12.5 µM | – | 23.5 µM | 29.6 µM | 11.1 µM | 24.6 µM | 23.6 µM | 30 µM | – | – | – | – | – | – | – | – | – | –
12 | O=c1c2ccccc2nc(-c2ccccc2)n1NC(=S)Nc1ccccc1 | – | – | > 100 µM | – | > 100 µM | – | > 100 µM | > 100 µM | > 100 µM | > 100 µM | – | – | – | – | – | – | – | – | – | –
13 | N#Cc1ccc(OC(=O)Nc2ccc(Cl)c(Cl)c2)cc1 | 44.2 µM | > 100 µM | 30.9 µM | 28.9 µM | > 100 µM | – | – | > 100 µM | 33 µM | 33.9 µM | 5.7 µM | – | – | 3.85 µM | 9.93 µM | 4.13 µM | 5.02 µM | 4.04 µM | 3.8 µM | 4.43 µM
14 | OCC(O)CNc1ccnc2cc(Cl)ccc12 (stereo not drawn) | – | – | > 100 µM | – | > 100 µM | > 100 µM | > 100 µM | > 100 µM | > 100 µM | > 100 µM | – | – | – | – | – | – | – | – | – | –
15 | CCOC(=O)Cn1c(=O)n(C)c(=O)c2c1ncn2Cc1ccccc1 | – | – | – | – | > 100 µM | > 100 µM | > 100 µM | > 100 µM | > 100 µM | > 100 µM | – | – | – | – | – | – | – | – | – | –
16 | COC1=C(Br)C(=O)c2nc(C)ccc2C1=O | – | – | – | – | 33.9 µM | 33.3 µM | 27.8 µM | 38.2 µM | 36.1 µM | 32.4 µM | – | – | – | – | – | – | – | – | – | –
17 | CC1CN1c1c(C(=O)/C=C/c2ccc(Cl)cc2)c(-c2ccccc2)nn(C)c1=O (stereo not drawn) | – | – | 5.22 µM | – | 8.68 µM | > 10 µM | > 10 µM | > 10 µM | 4.14 µM | 8.94 µM | – | – | – | – | – | – | – | – | – | –
18 | CC(C(=O)n1c2ccccc2c2ccccc21)N(c1ccccc1)c1ccccc1 (stereo not drawn) | – | – | 20.6 µM | – | 32.6 µM | 33.1 µM | 32.5 µM | 47.7 µM | 34.7 µM | 34.5 µM | – | – | – | – | – | – | – | – | – | –
19 | Clc1ccc(N=CNc2ccc(-c3nc4ccccc4o3)cc2)cc1 | 43.6 µM | 38.2 µM | > 100 µM | 28 µM | > 100 µM | – | – | > 100 µM | 45.7 µM | 54.2 µM | 38.5 µM | – | – | 21 µM | 18.7 µM | 14 µM | 1.89 µM | 84.2 µM | 27.2 µM | 14.8 µM
20 | COc1ccc2c3c(Nc4ccc(/C(C)=N/O)cc4)[nH]c4ccccc4c-3c(N=O)c2c1 | 23.1 µM | 4.79 µM | 3.06 µM | 37 µM | 29.2 µM | – | – | 38.3 µM | 34.6 µM | 71.7 µM | 1.26 µM | – | – | 5.05 µM | 3.98 µM | 2.04 µM | 7.04 µM | 15 µM | 17 µM | 17.3 µM
21 | COC(=O)/C(=C\c1ccc(N(CCC#N)CCC#N)cc1)NC(=O)c1cc([N+](=O)[O-])ccc1Cl | – | – | – | – | > 100 µM | > 100 µM | > 100 µM | > 100 µM | > 100 µM | > 100 µM | – | – | – | – | – | – | – | – | – | –
22 | O=C(N/N=C/c1ccc([N+](=O)[O-])o1)c1ccc(O)cc1 | 28 µM | > 100 µM | 6.9 µM | > 100 µM | 23.1 µM | – | – | > 100 µM | 17 µM | > 100 µM | 2.48 µM | – | – | > 100 µM | 10.7 µM | 6.38 µM | 21.7 µM | 5.19 µM | 12.7 µM | 4.39 µM
23 | OCCNCCOc1ccc(/C(=C(/Cl)c2ccccc2)c2ccccc2)cc1 | – | – | 4.52 µM | – | 25.4 µM | 8.56 µM | 23.5 µM | 45 µM | 26.6 µM | 15.9 µM | – | – | – | – | – | – | – | – | – | –

Source: PubChem BioAssay (NCI)
